A value given as a limit tells only on which side of the number the result lay.

Sequence of wild-type Epidermal Growth Factor Receptor (EGFR) (P00533 669-1210): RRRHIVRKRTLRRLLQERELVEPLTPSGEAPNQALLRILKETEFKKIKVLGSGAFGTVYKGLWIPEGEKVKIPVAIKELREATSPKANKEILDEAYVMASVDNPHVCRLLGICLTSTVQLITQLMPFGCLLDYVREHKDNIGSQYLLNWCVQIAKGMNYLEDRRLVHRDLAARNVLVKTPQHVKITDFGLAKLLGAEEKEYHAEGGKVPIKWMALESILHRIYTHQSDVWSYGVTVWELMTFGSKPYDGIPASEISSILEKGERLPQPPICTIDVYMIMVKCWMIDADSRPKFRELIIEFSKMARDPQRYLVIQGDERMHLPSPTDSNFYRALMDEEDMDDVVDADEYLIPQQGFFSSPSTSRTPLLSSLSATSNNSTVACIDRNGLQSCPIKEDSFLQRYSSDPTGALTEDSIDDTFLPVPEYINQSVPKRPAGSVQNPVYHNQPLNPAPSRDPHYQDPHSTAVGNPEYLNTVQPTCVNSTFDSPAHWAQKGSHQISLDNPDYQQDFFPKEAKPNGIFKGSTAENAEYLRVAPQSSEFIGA

The first assay addresses wild-type Epidermal Growth Factor Receptor (EGFR) (Homo sapiens (Human), UniProt P00533). Briefly: WT-EGFR Kinase Assay (TR-FRET, 2 mM ATP). Format: biochemical. As to conditions: EGFR Wildtyp 2 mM ATP IC50 [mol/l] (median), median or individual measurements. From the text: Inhibitory activity of compounds of the present invention against wild-type Epidermal Growth Factor Receptor (EGFR) was quantified employing the TR-FRET based EGFR assay as described in the following paragraphs.
Recombinant fusion protein of N-terminal Glutathion-S-Transferase (GST) and a fragment of human EGFR (amino acids R669 to A1210), expressed in Sf9 insect cells and purified via affinity chromatography using Glutathion Sepharose as described above, was used as kinase. As substrate for the kinase reaction the biotinylated peptide biotin-Ahx-[…] (C-terminus in amide form) was used which can be purchased e.g. form the company Biosynthan GmbH (Berlin-Buch, Germany).
For the assay 50 nl of a 100 fold concentrated solution of the test compound in DMSO was pipetted into either a black low volume 384 well microtiter plate or a black 1536 well microtiter plate (both Greiner Bio-One, Frickenhausen, Germany), 2 μL of a solution of EGFR in aqueous assay buffer [50 mM Hepes pH 7.0, 10 mM MgCl2, 1 mM dithiothreitol, 0.5 mM EGTA, 0.3 mM activated sodium ortho-vanadate, 0.005% (w/v) bovine serum albumin, 0.005% (v/v) Tween-20] were added and the mixture was incubated for 15 min at 22° C. to allow pre-binding of the test compounds to the enzyme before the start of the kinase reaction. […] The concentration of EGFR was adjusted depending of the activity of the enzyme lot and was chosen appropriate to have the assay in the linear range, typical concentration was […]. The reaction was stopped by the addition of 3 μL of a solution of HTRF detection reagents (83.3 nM streptavidine-XL665 [Cisbio Bioassays, Codolet, France] and 1.67 nM PT66-Tb-Cryptate, a terbium-cryptate labelled anti-phospho-tyrosine antibody from Cisbio Bioassays [instead of the PT66-Tb-cryptate PT66-Eu-Chelate from Perkin Elmer can also be used]) in an aqueous EDTA-solution (133.3 mM EDTA, 0.2% (w/v) bovine serum albumin in 50 mM HEPES pH 7.5).
The resulting mixture was incubated 1 h at 22° C. to allow the binding of the biotinylated phosphorylated peptide to the streptavidine-XL665 and the PT66-Tb-Cryptate. Subsequently the amount of phosphorylated substrate was evaluated by measurement of the resonance energy transfer from the PT66-Tb-Cryptate to the streptavidine-XL665. Therefore, the fluorescence emissions at 620 nm and 665 nm after excitation at 337 nm were measured in a HTRF reader, e.g. a Pherastar (BMG Labtechnologies, Offenburg, Germany) or a Viewlux (Perkin-Elmer). The ratio of the emissions at 665 nm and at 622 nm was taken as the measure for the amount of phosphorylated substrate.
On the technique in general: Time-resolved FRET reads energy transfer from a long-lived donor to a nearby acceptor.
With `CN1C(=O)c2c([nH]c(-c3ccnc(NC(=O)C(CC(F)F)c4ccc(F)cc4)c3)c2-c2ccccc2)CC12CCC2` (single isomer, unassigned; (+)) [Example 051, (+)-4,4-difluoro-2-(4-fluorophenyl)-N-[4-(5′-methyl-4′-oxo-3′-phenyl-1′,4′,5′,7′-tetrahydrospiro-[cyclobutane-1,6′-pyrrolo[3,2-c]pyridin]-2′-yl)pyridin-2-yl]butanamide], the IC50 amounted to 3.2 µM.
On the same count and under the same terms, the same measure for `CC(C(=O)Nc1cc(-c2[nH]c3c(CC(F)(F)F)cn(C)c(=O)c3c2-c2ccccc2)ccn1)c1ccc(F)cc1` (single isomer, unassigned; (-)) [Example 016, (-)-2-(4-fluorophenyl)-N-{4-[5-methyl-4-oxo-3-phenyl-7-(2,2,2-trifluoroethyl)-4,5-dihydro-1H-pyrrolo[3,2-c]pyridin-2-yl]pyridin-2-yl}propanamide]: above 20 µM.
`Cn1cc(CC(F)(F)F)c2[nH]c(-c3ccnc(NC(=O)C(CC(F)F)c4ccc(F)cc4)c3)c(-c3ccccc3)c2c1=O` (single isomer, unassigned; (-)) [Example 019, (-)-4,4-difluoro-2-(4-fluorophenyl)-N-{4-[5-methyl-4-oxo-3-phenyl-7-(2,2,2-trifluoroethyl)-4,5-dihydro-1H-pyrrolo[3,2-c]pyridin-2-yl]pyridin-2-yl}butanamide] showed an IC50 above 20 µM.
On the same count and under the same terms, the same measure for `CC(C(=O)Nc1cc(-c2[nH]c3c(CC(F)(F)F)cn(C)c(=O)c3c2-c2ccc(F)cc2)ccn1)c1ccc(F)cc1` (single isomer, unassigned; (-)) [Example 023, (-)-2-(4-fluorophenyl)-N-{4-[3-(4-fluorophenyl)-5-methyl-4-oxo-7-(2,2,2-trifluoroethyl)-4,5-dihydro-1H-pyrrolo[3,2-c]pyridin-2-yl]pyridin-2-yl}propanamide]: above 20 µM; for `Cc1cn(C)c(=O)c2c(-c3ccc(F)cc3)c(-c3ccnc(NC(=O)C(C)c4ccc(F)cc4)c3)[nH]c12` (single isomer, unassigned; (-)) [Example 031, (-)-2-(4-fluorophenyl)-N-{4-[3-(4-fluorophenyl)-5,7-dimethyl-4-oxo-4,5-dihydro-1H-pyrrolo[3,2-c]pyridin-2-yl]pyridin-2-yl}propanamide]: above 20 µM.
Still for that read-out and setting: with `Cc1cn(C)c(=O)c2c(-c3ccc(F)cc3)c(-c3ccnc(NC(=O)C(CC(F)F)c4ccc(F)cc4)c3)[nH]c12` (single isomer, unassigned; (-)) [Example 035, (-)-4,4-difluoro-2-(4-fluorophenyl)-N-{4-[3-(4-fluorophenyl)-5,7-dimethyl-4-oxo-4,5-dihydro-1H-pyrrolo[3,2-c]pyridin-2-yl]pyridin-2-yl}butanamide] the figure was above 20 µM.
Take `CN1C(=O)c2c([nH]c(-c3ccnc(NC(=O)C(CC(F)F)c4ccc(F)cc4)c3)c2-c2ccccc2)CC12CCC2` (single isomer, unassigned; (-)) [Example 050, (-)-4,4-difluoro-2-(4-fluorophenyl)-N-[4-(5′-methyl-4′-oxo-3′-phenyl-1′,4′,5′,7′-tetrahydrospiro-[cyclobutane-1,6′-pyrrolo[3,2-c]pyridin]-2′-yl)pyridin-2-yl]butanamide]: the IC50 is 11.9 µM.
The same measure, in the same setting: with `CC(C(=O)Nc1cc(-c2[nH]c3c(c2-c2ccccc2)C(=O)N(C)C2(CCC2)C3)ccn1)c1ccc(F)cc1` (single isomer, unassigned; (-)) [Example 053, (-)-2-(4-fluorophenyl)-N-[4-(5′-methyl-4′-oxo-3′-phenyl-1′,4′,5′,7′-tetrahydrospiro[cyclobutane-1,6′-pyrrolo[3,2-c]pyridin]-2′-yl)pyridin-2-yl]propanamide] the figure was above 20 µM.

The same assay, now with this note: read-out: EGFR Wildtyp 2 mM ATP IC50 [mol/l] (median), median or individual measurements.
Turning to `CC(C(=O)Nc1cc(-c2[nH]c3c(c2-c2ccccc2)C(=O)N(C)C2(CCC2)C3)ccn1)c1ccc(F)cc1` (single isomer, unassigned; (+)) [Example 054, (+)-2-(4-fluorophenyl)-N-[4-(5′-methyl-4′-oxo-3′-phenyl-1′,4′,5′,7′-tetrahydrospiro[cyclobutane-1,6′-pyrrolo[3,2-c]pyridin]-2′-yl)pyridin-2-yl]propanamide], the IC50 is above 20 µM.
For the molecule `CN1CCc2[nH]c(-c3ccnc(NC(=O)Cc4ccc(F)cc4)c3)c(-c3cccnc3)c2C1=O` [Example 012, 2-(4-fluorophenyl)-N-{4-[5-methyl-4-oxo-3-(pyridin-3-yl)-4,5,6,7-tetrahydro-1H-pyrrolo[3,2-c]pyridin-2-yl]pyridin-2-yl}acetamide], the IC50 was above 20 µM.
The same measure, in the same setting: the same measure for `CC(C(=O)Nc1cc(-c2[nH]c3c(c2-c2ccccc2)C(=O)N(C)CC3CC(F)(F)F)ccn1)c1ccc(F)cc1` (centres unmarked) [Example 013]: above 20 µM; for `CN1CC(CC(F)(F)F)c2[nH]c(-c3ccnc(NC(=O)C(CC(F)F)c4ccc(F)cc4)c3)c(-c3ccccc3)c2C1=O` (centres unmarked) [Example 017]: above 20 µM; for `CC(C(=O)Nc1cc(-c2[nH]c3c(c2-c2ccc(F)cc2)C(=O)N(C)CC3CC(F)(F)F)ccn1)c1ccc(F)cc1` (centres unmarked) [Example 021]: above 20 µM.
For `CN1CC(CC(F)(F)F)c2[nH]c(-c3ccnc(NC(=O)C(CC(F)F)c4ccc(F)cc4)c3)c(-c3ccc(F)cc3)c2C1=O` (centres unmarked) [Example 025], the IC50 was above 20 µM.
On the same count and under the same terms, the same measure for `CC1CN(C)C(=O)c2c1[nH]c(-c1ccnc(NC(=O)C(C)c3ccc(F)cc3)c1)c2-c1ccc(F)cc1` (centres unmarked) [Example 029]: above 20 µM; for `CC1CN(C)C(=O)c2c1[nH]c(-c1ccnc(NC(=O)C(C)c3ccc(F)cc3)c1)c2-c1ccccc1` (centres unmarked) [Example 037]: above 20 µM; for `CC1CN(C)C(=O)c2c1[nH]c(-c1ccnc(NC(=O)C(CC(F)F)c3ccc(F)cc3)c1)c2-c1ccccc1` (centres unmarked) [Example 039]: above 20 µM.
Still for that read-out and setting: with `CC1c2[nH]c(-c3ccnc(NC(=O)C(CC(F)F)c4ccc(F)cc4)c3)c(-c3ccccc3)c2C(=O)N(C)C1C` (centres unmarked) [Example 041] the figure was above 20 µM; with `CC1(C)CNC(=O)c2c1[nH]c(-c1ccnc(NC(=O)Cc3ccc(F)cc3)c1)c2-c1ccccc1` [Example 042, N-[4-(7,7-dimethyl-4-oxo-3-phenyl-4,5,6,7-tetrahydro-1H-pyrrolo[3,2-c]pyridin-2-yl)pyridin-2-yl]-2-(4-fluorophenyl)acetamide], 5.6 µM; with `Cn1cc(CC2CC2)c2[nH]c(-c3ccnc(NC(=O)Cc4ccc(F)cc4)c3)c(-c3ccccc3)c2c1=O` [Example 056, N-{4-[7-(cyclopropylmethyl)-5-methyl-4-oxo-3-phenyl-4,5-dihydro-1H-pyrrolo[3,2-c]pyridin-2-yl]pyridin-2-yl}-2-(4-fluorophenyl)acetamide], above 20 µM.
With `CC(C(=O)Nc1cc(-c2[nH]c3c(c2-c2ccccc2)C(=O)N(C)CC3CC2CC2)ccn1)c1ccc(F)cc1` (centres unmarked) [Example 057], the IC50 is above 20 µM.
The same measure, in the same setting: the same measure for `CN1CC(CC2CC2)c2[nH]c(-c3ccnc(NC(=O)C(CC(F)F)c4ccc(F)cc4)c3)c(-c3ccccc3)c2C1=O` (centres unmarked) [Example 059]: above 20 µM.
Take `CC(C(=O)Nc1cc(-c2[nH]c3c(c2-c2ccc(F)cc2)C(=O)N(C)CC3CC2CC2)ccn1)c1ccc(F)cc1` (centres unmarked) [Example 062]: the IC50 was above 5.71 µM.

(Values after patent US20230322767A1, “ARYL SUBSTITUTED PYRROLO-PYRIDINONES AND THERAPEUTIC USES THEREOF” (Bayer Aktiengesellschaft, priority 2020, published 2023).)
